PubChem BioAssay AID2060485 (Molecular Pharmacology Branch, DTP, NCI, 2025)

Tested on: A375 multi-cell spheroids with HUVEC/MSC, viability
Experiment: Anticancer human tumor A375 cell line growth inhibition [GQUAD];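 also: spheroids exposed to compounds for seven days before readout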
Details: for IC50: curve of first compound; for viability, T/C: stronger effect = lower value
Outline: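 Multi-cell-type spheroids of tumor cells with HUVEC and mesenchymal stem cells, treated with drug combinations. Concentrations descend in half-log steps from near clinical Cmax, or from 10 microM where Cmax is unknown; viability read-out.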

[1] = second compound 0.0316 µM, first compound 0.0316 µM
[2] = second compound 0.0316 µM, first compound 0.1 µM
[3] = second compound 0.0316 µM, first compound 0.316 µM
[4] = second compound 0.0316 µM, first compound 1 µM
[5] = second compound 0.0316 µM, first compound 3.16 µM
[6] = second compound 0.0316 µM, first compound 10 µM
[7] = second compound 0.1 µM, first compound 0.0316 µM
[8] = second compound 0.1 µM, first compound 0.1 µM
[9] = second compound 0.1 µM, first compound 0.316 µM
[10] = second compound 0.1 µM, first compound 1 µM
[11] = second compound 0.1 µM, first compound 3.16 µM
[12] = second compound 0.1 µM, first compound 10 µM
[13] = second compound 0.316 µM, first compound 0.0316 µM
[14] = second compound 0.316 µM, first compound 0.1 µM
[15] = second compound 0.316 µM, first compound 0.316 µM
[16] = second compound 0.316 µM, first compound 1 µM
[17] = second compound 0.316 µM, first compound 3.16 µM
[18] = second compound 0.316 µM, first compound 10 µM
[19] = second compound 1 µM, first compound 0.0316 µM
[20] = second compound 1 µM, first compound 0.1 µM
[21] = second compound 1 µM, first compound 0.316 µM
[22] = second compound 1 µM, first compound 1 µM
[23] = second compound 1 µM, first compound 3.16 µM
[24] = second compound 1 µM, first compound 10 µM
[25] = second compound 3.16 µM, first compound 0.0316 µM
[26] = second compound 3.16 µM, first compound 0.1 µM
[27] = second compound 3.16 µM, first compound 0.316 µM
[28] = second compound 3.16 µM, first compound 1 µM
[29] = second compound 3.16 µM, first compound 3.16 µM
[30] = second compound 3.16 µM, first compound 10 µM
[31] = second compound 10 µM, first compound 0.0316 µM
[32] = second compound 10 µM, first compound 0.1 µM
[33] = second compound 10 µM, first compound 0.316 µM
[34] = second compound 10 µM, first compound 1 µM
[35] = second compound 10 µM, first compound 3.16 µM
[36] = second compound 10 µM, first compound 10 µM

For `O=C(NO)c1cnc(N2CCN(S(=O)(=O)c3ccc4ccccc4c3)CC2)nc1` + CN(C)c1ccc(Nc2c3ccc(NC(=O)CCN4CCCC4)cc3nc3cc(NC(=O)CCN4CCCC4)ccc23)cc1, the IC50 (second compound 0.0316 µM) was 188 nM, the IC50 (second compound 0.1 µM) was 191 nM and the IC50 (second compound 0.316 µM) was 186 nM. It also gave an IC50 (second compound 1 µM) of 190 nM, an IC50 (second compound 3.16 µM) of 189 nM and an IC50 (second compound 10 µM) of 189 nM. The viability, T/C [1] was 121%, the viability, T/C [2] was 105% and the viability, T/C [3] was 4.84%. For the same compound, the viability, T/C [4] was 0.29%, the viability, T/C [5] was 0.27% and the viability, T/C [6] was 0.29%. The viability, T/C [7] was 107%, the viability, T/C [8] was 108% and the viability, T/C [9] was 5.35%. It also gave a viability, T/C [10] of 0.26%, a viability, T/C [11] of 0.22% and a viability, T/C [12] of 0.25%. The viability, T/C [13] was 108%, the viability, T/C [14] was 103% and the viability, T/C [15] was 4.36%. The viability, T/C [16] was 0.25%, the viability, T/C [17] was 0.21% and the viability, T/C [18] was 0.23%. It also gave a viability, T/C [19] of 104%, a viability, T/C [20] of 110% and a viability, T/C [21] of 5.11%. The viability, T/C [22] was 0.26%, the viability, T/C [23] was 0.2% and the viability, T/C [24] was 0.22%. It also gave a viability, T/C [25] of 103%, a viability, T/C [26] of 110% and a viability, T/C [27] of 4.25%. It also gave a viability, T/C [28] of 0.25%, a viability, T/C [29] of 0.22% and a viability, T/C [30] of 0.24%. It also gave a viability, T/C [31] of 102%, a viability, T/C [32] of 107% and a viability, T/C [33] of 6.02%. For the same compound, the viability, T/C [34] was 0.26%, the viability, T/C [35] was 0.93% and the viability, T/C [36] was 0.25%.

`C=CCn1c(=O)c2cnc(Nc3ccc(N4CCN(C)CC4)cc3)nc2n1-c1cccc(C(C)(C)O)n1` + CN(C)c1ccc(Nc2c3ccc(NC(=O)CCN4CCCC4)cc3nc3cc(NC(=O)CCN4CCCC4)ccc23)cc1 showed an IC50 (second compound 0.0316 µM) of 1160 nM, an IC50 (second compound 0.1 µM) of 1230 nM and an IC50 (second compound 0.316 µM) of 1310 nM. For the same compound, the IC50 (second compound 1 µM) was 1380 nM, the IC50 (second compound 3.16 µM) was 1440 nM and the IC50 (second compound 10 µM) was 1400 nM. For the same compound, the viability, T/C [1] was 99.7%, the viability, T/C [2] was 105% and the viability, T/C [3] was 96.4%. The viability, T/C [4] was 55.9%, the viability, T/C [5] was 12.3% and the viability, T/C [6] was 7.71%. The viability, T/C [7] was 98.4%, the viability, T/C [8] was 100% and the viability, T/C [9] was 104%. The viability, T/C [10] was 58%, the viability, T/C [11] was 15.1% and the viability, T/C [12] was 7.18%. It also gave a viability, T/C [13] of 106%, a viability, T/C [14] of 98.7% and a viability, T/C [15] of 99.9%. For the same compound, the viability, T/C [16] was 60.7%, the viability, T/C [17] was 14.2% and the viability, T/C [18] was 6.94%. The viability, T/C [19] was 102%, the viability, T/C [20] was 102% and the viability, T/C [21] was 107%. It also gave a viability, T/C [22] of 63.8%, a viability, T/C [23] of 15.3% and a viability, T/C [24] of 6.9%. For the same compound, the viability, T/C [25] was 108%, the viability, T/C [26] was 96.1% and the viability, T/C [27] was 106%. The viability, T/C [28] was 66%, the viability, T/C [29] was 15.6% and the viability, T/C [30] was 8.34%. The viability, T/C [31] was 103%, the viability, T/C [32] was 93.3% and the viability, T/C [33] was 105%. For the same compound, the viability, T/C [34] was 63.5%, the viability, T/C [35] was 17.4% and the viability, T/C [36] was 8.32%.
